| SMILES | melting point [°C] |
| --- | --- |
| Cc1cc(S(=O)(=O)NC(=O)[C@@H](N)C(C)C)ccc1NC(=O)Cc1ccc(Cl)c(Oc2cc(Cl)cc(C#N)c2)c1F.Cl | 169 to 180.3 |
| CSCCNS(=O)(=O)c1ccc(NC(=O)Cc2ccc(C)c(Oc3cc(Cl)cc(C#N)c3)c2)c(C)c1 [Compound I-130, 2-[3-(3-Chloro-5-cyano-phenoxy)-4-methyl-phenyl]-N-[2-methyl-4-(2-methylsulfanyl-ethylsulfamoyl)-phenyl]-acetamide] | 155.6 to 156.6 |
| COc1ccc(CC(=O)Nc2ccc(S(N)(=O)=O)cc2C)c(F)c1Oc1cc(Cl)cc(C#N)c1 [Compound I-191, 2-[3-(3-Chloro-5-cyano-phenoxy)-2-fluoro-4-methoxy-phenyl]-N-(2-methyl-4-sulfamoyl-phenyl)-acetamide] | 239.9 to 240.8 |
| NS(=O)(=O)c1ccc(NC(=O)Cc2ccc(Cl)c(Oc3cc(Cl)cc(Cl)c3Cl)c2F)cc1 [Compound I-10, 2-[4-Chloro-2-fluoro-3-(2,3,5-trichloro-phenoxy)-phenyl]-N-(4-sulfamoyl-phenyl)-acetamide] | 247 to 249.9 |
| Cc1cc(N2CCS(=O)(=O)CC2)ccc1NC(=O)Cc1ccc(C)c(Oc2cc(Cl)cc(C#N)c2)c1 [Compound I-161, 2-[3-(3-Chloro-5-cyano-phenoxy)-4-methyl-phenyl]-N-[4-(1,1-dioxo-1λ^6-thiomorpholin-4-yl)-2-methyl-phenyl]-acetamide] | 64.8 to 65.4 |
| Cc1cc(N2CCCS2(=O)=O)ccc1NC(=O)Cc1ccc(C)c(Oc2cc(Cl)cc(C#N)c2)c1 [Compound I-170, 2-[3-(3-Chloro-5-cyano-phenoxy)-4-methyl-phenyl]-N-[4-(1,1-dioxo-1λ^6-isothiazolidin-2-yl)-2-methyl-phenyl]-acetamide] | 182.5 to 184.6 |
| N#Cc1cc(C#N)cc(Oc2c(Cl)ccc(CC(=O)Nc3ccc(S(N)(=O)=O)cc3)c2F)c1 [Compound I-9, 2-[4-Chloro-3-(3,5-dicyano-phenoxy)-2-fluoro-phenyl]-N-(4-sulfamoyl-phenyl)-acetamide] | 135.7 to 138.1 |
| Cc1ccc(CC(=O)Nc2ccc(S(N)(=O)=O)cc2)cc1Oc1cc(F)cc(C#N)c1 [Compound I-11, 2-[3-(3-Cyano-5-fluoro-phenoxy)-4-methyl-phenyl]-N-(4-sulfamoyl-phenyl)-acetamide] | 165.8 to 168.1 |

More lines, now with the values ahead:

| melting point [°C] | SMILES |
| --- | --- |
| 232.1 to 234.6 | Cc1cc(S(N)(=O)=O)ccc1NC(=O)Cc1ccc(Cl)c(Oc2c(C)cc(C#N)cc2C)c1 [Compound I-56, 2-[4-Chloro-3-(4-cyano-2,6-dimethyl-phenoxy)-phenyl]-N-(2-methyl-4-sulfamoyl-phenyl)-acetamide] |
| 213.9 to 216.1 | NS(=O)(=O)c1ccc(NC(=O)Cc2ccc(Cl)c(C(=O)c3cc(Cl)ccc3Cl)c2)cc1 [Compound I-250, 2-[4-Chloro-3-(2,5-dichloro-benzoyl)-phenyl]-N-(4-sulfamoyl-phenyl)-acetamide] |
| 146.3 to 147.1 | CCc1ccc(CC(=O)Nc2ccccc2Cl)cc1Oc1cc(Cl)ccc1Cl [Compound I-21, N-(2-Chloro-phenyl)-2-[3-(2,5-dichloro-phenoxy)-4-ethyl-phenyl]-acetamide] |
| 116.9 to 118 | COC(=O)Cc1ccc(NC(=O)Cc2ccc(C)c(Oc3cc(Cl)cc(C#N)c3)c2)c(Cl)c1 [Compound I-235, (3-Chloro-4-{2-[3-(3-chloro-5-cyano-phenoxy)-4-methyl-phenyl]-acetylamino}-phenyl)-acetic acid methyl ester] |
| 157.2 to 157.9 | CCCC(=O)NS(=O)(=O)c1ccc(NC(=O)Cc2ccc(Cl)c(Oc3cc(Cl)cc(C#N)c3)c2F)c(Cl)c1.[Na] [Compound I-138, N-(4-Butyrylsulfamoyl-2-chloro-phenyl)-2-[4-chloro-3-(3-chloro-5-cyano-phenoxy)-2-fluoro-phenyl]-acetamide; sodium salt] |
| 216.9 to 218.3 | Cc1ccc(CC(=O)Nc2ccc(C(=O)O)cc2Cl)c(F)c1Oc1cc(C#N)cc(C(F)F)c1 [Compound I-110, 3-Chloro-4-{2-[3-(3-cyano-5-difluoromethyl-phenoxy)-2-fluoro-4-methyl-phenyl]-acetylamino}-benzoic acid] |
| 230.8 to 233.4 | Cc1cc(S(N)(=O)=O)ccc1NC(=O)Cc1cc(C)c(C)c(Oc2cc(Cl)cc(C#N)c2)c1 [Compound I-183, 2-[3-(3-Chloro-5-cyano-phenoxy)-4,5-dimethyl-phenyl]-N-(2-methyl-4-sulfamoyl-phenyl)-acetamide] |
| 125.1 to 127 | Cc1cc(CC(=O)Nc2ccccc2Cl)cc(C(=O)c2ccccc2Cl)c1 [Compound I-259, 2-[3-(2-Chloro-benzoyl)-5-methyl-phenyl]-N-(2-chloro-phenyl)-acetamide] |
| 158.6 to 159.1 | Cc1ccncc1NC(=O)Cc1ccc(C)c(Oc2cc(Cl)cc(C#N)c2)c1 [Compound I-224, 2-[3-(3-Chloro-5-cyano-phenoxy)-4-methyl-phenyl]-N-(4-methyl-pyridin-3-yl)-acetamide] |
| 183.9 to 185.1 | Cc1cc(C#N)cc(C)c1Oc1cc(CC(=O)Nc2ccccc2Cl)ccc1Cl [Compound I-68, 2-[4-Chloro-3-(4-cyano-2,6-dimethyl-phenoxy)-phenyl]-N-(2-chloro-phenyl)-acetamide] |
| 62.3 to 64.1 | Cc1cc(C(=O)CN2CCN(C)CC2)ccc1NC(=O)Cc1ccc(C)c(Oc2cc(Cl)cc(C#N)c2)c1 [Compound I-159, 2-[3-(3-Chloro-5-cyano-phenoxy)-4-methyl-phenyl]-N-{2-methyl-4-[2-(4-methyl-piperazin-1-yl)-acetyl]-phenyl}-acetamide] |
| 232.9 to 236.9 | COc1ccc(CC(=O)Nc2ccc(S(N)(=O)=O)cc2C)cc1Oc1cc(C#N)ccc1Cl [Compound I-66, 2-[3-(2-Chloro-5-cyano-phenoxy)-4-methoxy-phenyl]-N-(2-methyl-4-sulfamoyl-phenyl)-acetamide] |
